This note sets out measurements from patent US8729089B2 (Gilead Sciences, Inc., priority 2006, dated 2014).

Data set [1] deals with HCV replicon in human hepatoma Huh-7 cell line. The data set can be described thus: Anti-HCV replicon assay (EC50, luciferase). The data set is classed as cell-based. An outline of the steps: (§1)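 Cytotoxicity (CC50) measured by CellTiter-Glo and antiviral activity (EC50) by luciferase signal from lysed cells, both by luminescence. Replicon-bearing Huh-7 cells, 6000 per well, incubated 3 days at 37 °C with threefold-diluted compound (0.5% DMSO for DMSO-dissolved compounds).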
(In antiviral work, replicon cells carry a viral genome segment that copies itself.)

Another data set deals with Huh-7 HCV replicon cells. The data set can be described thus: CC50 assay (CellTiter-Glo) in Huh-7 HCV replicon cells. The settings on record: 3 days incubation, CellTiter-Glo readout. The data set is classed as cell-based, human. An outline of the steps:
as §1

Experiment in data set [2]: as above
It counts as cell-based, human. Particulars: human, 3 days incubation, CellTiter-Glo readout. The gist of the method: as §1
(In ATP-based viability assays light output follows the ATP content of the culture.)

Where [3] appears, read: Huh-7 HCV replicon cells, 3 days incubation, luciferase readout.

What is called EC50 is the midpoint of the concentration-response curve. Usually CC50 stands for the concentration that lowers cell viability or growth by half. A higher CC50 goes with lower toxicity to the cells. Regarding `CC(Nc1nc(NCC(F)(F)F)c2nc(-c3ccc(F)cc3)ccc2n1)c1ccc(S(N)(=O)=O)cc1` (stereo not drawn) [Example 250, 4-{1-[6-(4-Fluoro-phenyl)-4-(2,2,2-trifluoro-ethylamino)-pyrido[3,2-d]pyrimidin-2-ylamino]-ethyl}-benzenesulfonamide], the EC50 in data set [1] (setting [3]) was under 0.1 µM. Moreover, the CC50 with Huh-7 HCV replicon cells was under 5 µM.

In turn, `CC(Nc1nc(NCC(F)(F)F)c2nc(-c3ccc(F)cc3)ccc2n1)c1ccc(S(N)(=O)=O)cc1` (stereo not drawn) [Example 257, 4-{1-[6-(4-Fluoro-phenyl)-4-(2,2,2-trifluoro-ethylamino)-pyrido[3,2-d]pyrimidin-2-ylamino]-ethyl}-benzenesulfonamide] returned an EC50 in data set [1] (setting [3]) of under 0.1 µM. The CC50 with Huh-7 HCV replicon cells lay within 5 to 25 µM.

`NS(=O)(=O)c1ccc(CNc2nc(C3CC3)c3nc(-c4ccc(F)c(S(N)(=O)=O)c4)ccc3n2)cc1` [Example 289, 5-[4-Cyclopropyl-2-(4-sulfamoyl-benzylamino)-pyrido[3,2-d]pyrimidin-6-yl]-2-fluoro-benzenesulfonamide] yielded an EC50 in data set [1] (Hepatitis C virus, Huh-7, 72 h) of under 0.1 µM. For the same compound, the CC50 at 3 days in data set [2] was 5 to 25 µM.

In turn, `NC(=O)Nc1ccc(-c2ccc3nc(NCc4ccc(S(N)(=O)=O)cc4)nc(C4CC4)c3n2)cc1` [Example 290, 4-{[4-Cyclopropyl-6-(4-ureido-phenyl)-pyrido[3,2-d]pyrimidin-2-ylamino]-methyl}-benzenesulfonamide] gave an EC50 in data set [1] (Hepatitis C virus, Huh-7, 72 h) of under 0.1 µM. Further, the CC50 at 3 days in data set [2] was 5 to 25 µM.

`NS(=O)(=O)c1ccc(CNc2nc(C3CC3)c3nc(-c4cccc(S(N)(=O)=O)c4)ccc3n2)cc1` [Example 291, 4-{[4-Cyclopropyl-6-(3-(aminosulfonyl)-phenyl)-pyrido[3,2-d]pyrimidin-2-ylamino]-methyl}-benzenesulfonamide] had an EC50 in data set [1] (Hepatitis C virus, Huh-7, 72 h) of under 0.1 µM. In data set [2], the CC50 at 3 days was under 5 µM.

In data set [1] (Hepatitis C virus, Huh-7, 72 h), `NC(=O)c1ccc(-c2ccc3nc(NCc4ccc(S(N)(=O)=O)cc4)nc(C4CC4)c3n2)cc1` [Example 292, 4-[4-Cyclopropyl-2-(4-sulfamoyl-benzylamino)-pyrido[3,2-d]pyrimidin-6-yl]-benzamide] had an EC50 of under 0.1 µM. The compound also registered a CC50 at 3 days in data set [2] of 5 to 25 µM.

In data set [1] (Hepatitis C virus, Huh-7, 72 h), `NS(=O)(=O)c1ccc(CNc2nc(C3CC3)c3nc(-c4ccc(C(=O)NC5CC5)cc4)ccc3n2)cc1` [Example 293, N-Cyclopropyl-4-[4-cyclopropyl-2-(4-sulfamoyl-benzylamino)-pyrido[3,2-d]pyrimidin-6-yl]-benzamide] registered an EC50 of under 0.1 µM. The compound also registered a CC50 at 3 days in data set [2] of under 5 µM.

Regarding `NS(=O)(=O)c1ccc(CNc2nc(C3CC3)c3nc(-c4ccc(F)cc4)ccc3n2)cc1` [Example 294, 4-{[4-Cyclopropyl-6-(4-fluoro-phenyl)-pyrido[3,2-d]pyrimidin-2-ylamino]-methyl}-benzenesulfonamide], the EC50 in data set [1] (Hepatitis C virus, Huh-7, 72 h) was under 0.1 µM. The compound also gave a CC50 at 3 days in data set [2] of under 5 µM.

In the case of `CCCc1nc(NCc2ccc(F)cc2)nc2ccc(-c3ccc(NC(=O)C(C)(C)N)cc3)nc12` [Example 295, 2-Amino-N-{4-[2-(4-fluoro-benzylamino)-4-propyl-pyrido[3,2-d]pyrimidin-6-yl]-phenyl}-2-methyl-propionamide], in data set [1] (Hepatitis C virus, Huh-7, 72 h), the EC50 was under 0.1 µM. In data set [2], this compound gave a CC50 at 3 days of over 25 µM.

Regarding `NS(=O)(=O)c1ccc(CNc2nc(NC3CC3)c3nc(-c4ccc(F)cc4)ccc3n2)cc1` [Example 296, 4-{[4-Cyclopropylamino-6-(4-fluoro-phenyl)-pyrido[3,2-d]pyrimidin-2-ylamino]-methyl}-benzenesulfonamide], in data set [1] (Hepatitis C virus, Huh-7, 72 h), the EC50 is under 0.1 µM. In data set [2], the CC50 at 3 days is over 25 µM.

Turning to `CCNc1nc(NCc2ccc(S(N)(=O)=O)cc2)nc2ccc(-c3ccc(F)cc3)nc12` [Example 297, 4-{[4-Ethylamino-6-(4-fluoro-phenyl)-pyrido[3,2-d]pyrimidin-2-ylamino]-methyl}-benzenesulfonamide], the EC50 in data set [1] (Hepatitis C virus, Huh-7, 72 h) is under 0.1 µM. The CC50 at 3 days in data set [2] was under 5 µM.

As to `Fc1ccc(CNc2nc(N[C@@H]3CCOC3)c3nc(-c4ccc(F)cc4)ccc3n2)cc1` [Example 298, N2-(4-Fluoro-benzyl)-6-(4-fluoro-phenyl)-N4-(tetrahydro-furan-3-yl)-pyrido[3,2-d]pyrimidine-2,4-diamine], the EC50 in data set [1] (Hepatitis C virus, Huh-7, 72 h) was under 0.1 µM. Further, the CC50 at 3 days in data set [2] is 5 to 25 µM.

In data set [1] (Hepatitis C virus, Huh-7, 72 h), `CS(=O)(=O)CCNc1nc(NCc2ccc(F)cc2)nc2ccc(-c3ccc(F)cc3)nc12` [Example 299, N2-(4-Fluoro-benzyl)-6-(4-fluoro-phenyl)-N4-(2-methanesulfonyl-ethyl)-pyrido[3,2-d]pyrimidine-2,4-diamine] came in with an EC50 of under 0.1 µM. Further, in data set [2], the CC50 at 3 days lay within 5 to 25 µM.

For the compound `CC1(Oc2nc(NCc3ccc(S(N)(=O)=O)cc3)nc3ccc(-c4ccc(F)cc4)nc23)CC1` [Example 301, 4-{[6-(4-Fluoro-phenyl)-4-(1-methyl-cyclopropoxy)-pyrido[3,2-d]pyrimidin-2-ylamino]-methyl}-benzenesulfonamide], the EC50 in data set [1] (Hepatitis C virus, Huh-7, 72 h) is under 0.1 µM. In data set [2], the CC50 at 3 days is under 5 µM.

The compound `N#CC1(Nc2nc(NCc3ccc(S(N)(=O)=O)cc3)nc3ccc(-c4ccc(F)cc4)nc23)CC1` [Example 303, 4-{[4-(1-Cyano-cyclopropylamino)-6-(4-fluoro-phenyl)-pyrido[3,2-d]pyrimidin-2-ylamino]-methyl}-benzenesulfonamide] gave an EC50 in data set [1] (Hepatitis C virus, Huh-7, 72 h) of under 0.1 µM. Besides, the CC50 at 3 days in data set [2] lay within 5 to 25 µM.
